Consider two compounds from paper PMC7345095, “New Synthetic Nitro-Pyrrolomycins as Promising Antibacterial and Anticancer Agents” (Antibiotics, 2020).

Converted amounts (≈) assume the structure as drawn. Where two headings read alike, the source gives them in different places. A value given as a limit tells only on which side of the number the result lay.

The subject of experiment [1] is hTERT RPE-1 immortalized retinal pigment epithelial cell line. Description: MTT viability assay (cytotoxicity on normal cells). Format: cell-based. Particulars: read-out: IC50 hTERT-RPE-1. As for the experimental part: (§1) The HCT116 colon cancer cell line (ATCC® CCL-247™), the MCF 7 breast cancer cell line (ATCC® HTB-22™) and the hTERT RPE-1 -immortalized retinal pigment epithelial cell line (ATCC® CRL-4000™) used in this study were cultured in DMEM medium (Gibco, Paisley, UK), supplemented with 1% glutamine, 10% heat-inactivated fetal bovine serum and 100U/mL penicillin and 100 μg/mL streptomycin, as already described, and maintained at 37 °C and 5% CO2.
(§2) Cells were plated at 5 × 10^3 cells/well in 96-well plates and incubated for 24 h prior to treatment for further 48 h of different concentrations of PMs. After incubation, a sample of 20 μL of Thiazolyl Blue Tetrazolium Bromide (5 mg mL^−1) in PBS was added to each well and cultured for 2h at 37 °C in CO2 incubator. After removing the medium containing MTT and three washes with PBS, 100 μL of warm DMSO was added to each well to dissolve formazan. Samples were shaken for 10 min, at room temperature in the dark, and the absorbance was recorded at 570 nm using a microplate reader (Spark® 20M Tecan Trading AG, Switzerland). Percentage of cell viability with respect to untreated control cells (vehicle control) was calculated after subtraction of the blank. The IC50 values, that is the concentration necessary to inhibit the 50% of cell growth, was calculated using a dose-response model, obtained from sigmoidal fitting of response curves of percent inhibition versus logarithmic concentration of PMs, using Graph Pad Prism software. Each result represents the mean value of three different experiments performed in triplicate.
On the technique in general: Tetrazolium dyes change colour on reduction, which living cells bring about.

The subject of experiment [2] is P. aeruginosa. Description: MIC by absorbance at 600 nm after overnight challenge. In kind it is cell-based. Conditions: Pseudomonas aeruginosa, LB medium, absorbance 600 nm. On the procedure: (§3) Kill curve assays were performed to test the antimicrobial efficacy of pyrrolomycins (i.e., 1, 2, 5a, 5b, 5c, 5d), as well as that of the natural PM-C against the indicator pathogen Staphylococcus aureus ATCC 25923 and Pseudomonas aeruginosa ATCC 10145 strains. Briefly, a single colony of either S. aureus or P. aeruginosa strains was picked up and pre-cultivated (ca. 16 h) at 37 °C with shacking (160 rpm) in Luria Bertani medium (hereinafter named as LB and composed of (g L^−1): sodium chloride, 10; yeast extract, 5; tryptone, 10). The same medium was solidified by adding 15 g L^−1 of bacteriological agar when needed. Bacterial cells were then inoculated (1% v/v) in LB medium amended with increasing concentrations—ranging from 0 to 100 μM as initial concentration—of each pyrrolomycin tested, challenging the cultures for 24 h and incubating them as reported above. The actual number of viable colony forming units per milliliter of culture (CFU mL^−1) of each bacterial strain, who survived the challenge exerted by pyrrolomycins, was evaluated through the spot plate count method and compared to unchallenged cultures, as reported elsewhere. The data are reported as average values (n = 3) of CFU mL^−1 in the logarithmic (Log10) scale with standard deviation (SD). Evaluation of the MIC of PM-5c, and -5d against S. aureus and of PM-5d against P. aeruginosa was performed by incubating 1% (v/v) of an overnight bacterial suspension in LB medium in presence of increasing concentrations of the PMs. As a control, MIC of PM-C was measured. At the time of the inoculum and after overnight challenge, the absorbance of the cultures at 600 nm, which is an indirect way to measure the bacterial cell growth, was registered using a Spark™ 10 M multimode microplate reader measuring. The experiment was carried out in triplicate, being the absorbance corrected by subtracting that of the culture medium amended with the corresponding PM tested.

The test system of experiment [3] is S. aureus. Described as above. Format: cell-based. Conditions: Staphylococcus aureus, LB medium, absorbance 600 nm. As for the experimental part: as §3
For experiment [4], the system named is Staphylococcus aureus ATCC 25923. Description: Kill curve assay (MBC), planktonic cells. Particulars: for MBC: Staphylococcus aureus, read-out: MBC S. aureus. Format: cell-based. As for the experimental part:
as §3

The subject of experiment [5] is Pseudomonas aeruginosa ATCC 10145. Description: Kill curve assay (MBC), planktonic cells. Format: cell-based. Particulars: for MBC: read-out: MBC P. aeruginosa. On the procedure:
as §3

For experiment [6], the system named is P. aeruginosa cells. Description: AO/EB double staining of bacterial cells. Format: cell-based, Pseudomonas aeruginosa. Conditions: 24 h. On the procedure: It is noteworthy to highlight that the main difference between PM-C and 5d relies only on the presence of the nitro group in the position R3 of the latter, which is likely responsible for its enhanced electronegativity and, therefore, better biological reactivity over PM-C.
Figure 3 Fluorescence micrographs of P. aeruginosa cells treated for 24 h with 100 μM of PM-C or 10 μM of PM 5d after AO/EB double staining. Control represents untreated cells. Green (AO) are viable cells, red (EB) dead cells, and orange vital cells with damaged membranes.

Experiment [7] relates to HCT116 cells. Description: Acridine orange/ethidium bromide (AO/EB) staining. In kind it is cell-based. Conditions: for AO/EB fluorescence of treated HCT116 cells (type of cell death): treated at IC50 for 24 and 48 h. An excerpt: Cells were immediately observed under a fluorescent microscopy (Carl Zeiss) at 630 × magnification.
Experiment [8] has as its system HCT116 colon cancer cell line. The experiment can be described thus: MTT viability assay. In kind it is cell-based. Conditions: for IC50: MTT, 48 h of treatment; for C-SI (Cancer Selectivity Index), HCT116: ratio of IC50 of normal hTERT-RPE-1 to that of HCT116, first value of the cell. As for the experimental part:
as §1, §2

Experiment [9] concerns MCF 7 breast cancer cell line. The experiment can be described thus: MTT viability assay. Format: cell-based. Conditions: for IC50: MTT, 48 h of treatment; for C-SI (Cancer Selectivity Index), MCF 7: ratio of IC50 of normal hTERT-RPE-1 to that of MCF 7, second value of the cell. As for the experimental part:
as §1, §2

Experiment [10] has as its system HCT116 and MCF 7 cancer cell lines. Description: MTT viability assay, statements over both cancer cell lines. Format: cell-based. Conditions: for IC50: MTT, 48 h challenge, group statement, read-out: IC50, regardless of the cancer cell line (HCT116, MCF 7); for C-SI, mean value among the two cancer cell lines: mean of HCT116 and MCF 7 C-SI. As for the experimental part: as §1, §2

The test system of experiment [11] is HCT116 cells. Description: Morphological assessment, phase contrast inverted microscope. Format: cell-based. Conditions: 0.1 µM (sub-inhibitory), 24 h. As for the experimental part: HCT116 cells were seeded in 24 well culture plates with a cell density of 1 × 10^5 cells/well. After 24 h cells were incubated for 24 h with different concentration of the selected PMs, and observed under a phase contrast inverted microscope (Carl Zeiss) at 200× magnification, for morphological changes assessment.

In experiment [12] the test system is Escherichia coli. Further details: method as in PMID 31405863, PMID 15730262. Conditions: natural PMs; cited from earlier work.

The term IC50 denotes the point on the concentration scale where inhibition reaches its midpoint. The term MIC denotes the lowest concentration found to suppress growth. A low value points to a more susceptible organism. In general, MBC refers to the lowest tested concentration that kills the bacteria rather than only halting them. `O=C(c1cc(Cl)cc(Cl)c1O)c1[nH]c(Cl)c(Cl)c1[N+](=O)[O-]` [PM 5d, (3,5-Dichloro-2-hydroxyphenyl)(4,5-dichloro-3-nitro-1H-pyrrol-2-yl)methanone]: the 50% inhibitory concentration (IC50) in [1] (hTERT-RPE1, MTT, 48 h of treatment, normal epithelial cells) was 225000 ± 22700 nM; in [8] (Homo sapiens, HCT-116, 48 h), 1560 nM; in experiment [8] it was 1600 ± 200 nM; in experiment [9] (Homo sapiens, MCF7, 48 h) it was 1570 ± 390 nM; in [9], 1600 ± 400 nM; in [10] it was 800 to 2250 nM. For the same compound, the MIC in [2] was above 20 µM; in [3] it was 2 µM (≈ 0.74 µg/mL). For the same compound, the MBC in [4] (ATCC25923, minimal bactericidal concentration, planktonic cells, 24 h challenge, LB medium) was 7.5 µM (≈ 2.77 µg/mL); in [5] (Pseudomonas aeruginosa, ATCC10145, minimal bactericidal concentration, planktonic cells, 24 h challenge, LB medium), 30 µM (≈ 11.1 µg/mL). Further, the “B-SI (Bacterial Selectivity Index), S. aureus” value in [4] (ratio of IC50 of normal hTERT-RPE-1 to MBC of S. aureus, second value of the cell) was 30. In [5] (ratio of IC50 of normal hTERT-RPE-1 to MBC of P. aeruginosa, first value of the cell), the “B-SI (Bacterial Selectivity Index), P. aeruginosa” value amounted to 7.5. The “AO/EB staining colour of P. aeruginosa cells” value in experiment [6] (10 μM (sub-inhibitory)) is given as “either orange (indicating that cell membranes were damaged due to the entrance of EB) or red (indicating not viable cells)”. In addition, the “late apoptosis by AO/EB staining, HCT116” value in [7] (treated at IC50, after 48 h) is on record as “reddish orange cells”. Further, in experiment [7], the “AO/EB fluorescence of treated HCT116 cells (type of cell death)” value is “orange fluorescence”. The “C-SI (Cancer Selectivity Index), HCT116” value in [8] was found to be 143.3. The “C-SI (Cancer Selectivity Index), MCF 7” value in [9] was determined as 143.4. Further, in experiment [10], the “C-SI, mean value among the two cancer cell lines” value was found to be 143. For the same compound, the “morphology of treated HCT116 cells” value in [11] is “more fibroblastic and less clumped morphology”.
With `O=C(c1cc(Cl)c(Cl)[nH]1)c1cc(Cl)cc(Cl)c1O` [PM-C, reference compound], the IC50 is 8300 ± 1900 nM in experiment [1] (hTERT-RPE1, 48 h); 800 ± 300 nM in experiment [8] (Homo sapiens, HCT-116, 48 h); 1500 ± 400 nM in experiment [9] (Homo sapiens, MCF7, 48 h); 800 to 2250 nM in experiment [10]. Moreover, the figures for the MIC in experiment [2] and in [3] were above 40 µM and 1 µM (≈ 0.325 µg/mL), respectively. The minimum bactericidal concentration (MBC) in [4] (ATCC25923, 24 h) was 90 µM (≈ 29.2 µg/mL); in [5] (Pseudomonas aeruginosa, ATCC10145, 24 h), above 100 µM; in experiment [5] (minimal bactericidal concentration, planktonic cells, 24 h challenge, LB medium) it was above 100 µM. Moreover, the “decrease in the number of vital S. aureus cells” value in [4] (increasing concentrations up to 80 μM, 24 h) is given as ~ 3 log. Further, the “log reduction in the number of viable CFUs, P. aeruginosa” value in experiment [5] (highest concentration tested 100 μM, 24 h) is “did not display any antimicrobial effect”. The “AO/EB staining colour of P. aeruginosa cells” value in [6] (100 μM) is “appeared green”. Moreover, the “AO/EB fluorescence of treated HCT116 cells (type of cell death)” value in [7] was “orange fluorescence”. Also, the “C-SI (Cancer Selectivity Index), HCT116” value in experiment [8] worked out at 10.4. Moreover, the “C-SI (Cancer Selectivity Index), MCF 7” value in [9] was 5.5. Also, the “C-SI, mean value among the two cancer cell lines” value in experiment [10] stood at 8. In addition, the “morphology of treated HCT116 cells” value in experiment [11] was “more fibroblastic and less clumped morphology”. In [12], the “MIC against Escherichia coli” value is on record as “more than 300 μM”.
